# According to US20250281451A1, “COMPOSITIONS AND METHODS FOR MODULATING SLEEP AND USES THEREOF” (Brightseed, Inc., priority 2022, published 2025):
# “Also recorded” adds a separate entry of the source.
# Key:
# Orx1 = molecular target: T1, Orx1 (Homo sapiens, UniProt O43613); experiment: % agonism on Orx1 at the OR2 IC50 concentration; format: cell-based; settings: at the μM concentration needed to achieve IC50 in OR2
# T1 sequence (O43613 1-425): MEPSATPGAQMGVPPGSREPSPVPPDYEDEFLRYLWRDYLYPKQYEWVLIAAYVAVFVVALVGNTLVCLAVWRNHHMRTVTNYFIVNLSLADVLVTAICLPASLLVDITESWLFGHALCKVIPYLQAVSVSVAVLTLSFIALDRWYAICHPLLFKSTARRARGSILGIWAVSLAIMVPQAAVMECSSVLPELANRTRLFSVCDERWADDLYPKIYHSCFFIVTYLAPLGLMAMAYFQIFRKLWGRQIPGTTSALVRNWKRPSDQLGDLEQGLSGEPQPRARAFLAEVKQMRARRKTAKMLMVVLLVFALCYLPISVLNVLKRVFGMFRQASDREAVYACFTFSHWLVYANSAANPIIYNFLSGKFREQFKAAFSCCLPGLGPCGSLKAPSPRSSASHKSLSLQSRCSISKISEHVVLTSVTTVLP
# Method: For this example, the following protocol was used: 1.) seed cells in 20 μL Cell Plating Reagent; 2.) incubate cells overnight at 37° C. and 5% CO2; 3.) treat cells with 2.5 μL 10× antagonist prepared in Compound Dilution Buffer (For OR2 screening, 2.5 μL of 1:100 natural product sample in DiscoverX cell plating reagent.
# (§1) The plants described herein were tested to determine the concentration, in μM, to achieve the relative IC50 of OR2 receptor, the absolute percent agonism achieved at the μM concentration of the relative OR2 IC50, the percentage receptor activity at the concentration, in μM, needed to achieve IC50 in OR2, the percentage cell viability, measured by XTT assay, at the IC50 μM concentration, the concentration of the fraction, in fold dilution, needed to achieve IC50 of OR2, and the percentage receptor activity at the concentration of the fraction, in fold dilution, needed to achieve IC50 of OR2.
# cells = experiment: cell viability, XTT assay; format: cell-based; settings: at the IC50 μM concentration of the compound
# Method: as §1
# Orx2 = molecular target: T2, Orx2 (Homo sapiens, UniProt O43614); experiment: Orx2 antagonist screening, chemiluminescent cell assay with Orexin B EC80; format: cell-based; settings: for % Agonism Orx2 at Relative IC50: absolute percent agonism at the μM concentration of the relative OR2 IC50; for IC50: antagonist mode against Orexin B EC80, read-out: Relative IC50 of Orx2; for IC50 Dilution of Orx2 (fold dilution): concentration of the fraction of the plant source, in fold dilution, needed to achieve IC50 of OR2
# T2 construct: DiscoverX
# T2 sequence (O43614 1-444): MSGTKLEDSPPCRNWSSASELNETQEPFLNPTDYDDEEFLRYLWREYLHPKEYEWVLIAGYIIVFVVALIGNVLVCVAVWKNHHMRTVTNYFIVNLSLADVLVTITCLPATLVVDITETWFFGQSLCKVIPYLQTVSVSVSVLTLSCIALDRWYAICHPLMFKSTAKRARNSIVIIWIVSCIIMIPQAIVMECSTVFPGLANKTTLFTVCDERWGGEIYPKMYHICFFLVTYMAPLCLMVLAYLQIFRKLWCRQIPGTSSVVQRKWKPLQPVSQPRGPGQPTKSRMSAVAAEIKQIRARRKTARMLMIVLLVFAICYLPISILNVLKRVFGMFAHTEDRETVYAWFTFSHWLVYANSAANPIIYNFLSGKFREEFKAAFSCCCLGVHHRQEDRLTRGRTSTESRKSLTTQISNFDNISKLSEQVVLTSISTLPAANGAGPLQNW
# Method: For this example, the following protocol was used: 1.) seed cells in 20 μL Cell Plating Reagent; 2.) incubate cells overnight at 37° C. and 5% CO2; 3.) treat cells with 2.5 μL 10× antagonist prepared in Compound Dilution Buffer (For OR2 screening, 2.5 μL of 1:100 natural product sample in DiscoverX cell plating reagent. Control antagonist, Seltorexant, 10× stock was prepared at 1500 nM); 4.) incubate for 30 minutes at 37° C. and 5% CO2; 5.) treat cells with 2.5 μL 10× agonist prepared in Compound Dilution Buffer (For OR2 screening, 2.5 μL of 10× Orexin B EC80, 252.7 nM); 6.) incubate for 90 minutes at 37° C. and 5% CO2; 7.) add 12.5 μL Working Detection Solution; 8.) incubate for 1 hour at room temperature in the dark; and 9.) read chemiluminescent signal.
# as §1
# male Sprague-Dawley rat = experiment: in vivo tolerability, dose escalation, adverse effect observation; settings: for 15 min effects (adverse effects) / 30 min effects (adverse effects) / 60 min effects (adverse effects): n=3 rats, (x/3) animals affected
# Method: In this example, the in vivo tolerability of Compounds 26, 21, 29, and 13 was assessed.
# Naïve rats (male Sprague-Dawley rat) were acclimatized to the procedure room in their home cages up to 7 days following arrival to the test facility, with food and water available ad libitum. On the day of experiment, animals were acclimatized to the experimental room for at least one hour prior to the beginning of any experiment. All animals were tail marked, weighed and randomly assigned to treatment groups. The animals (n=3 per dose) were treated with either Compounds 26, 21, 29, and 13 (10 mL/kg, p.o.). For each compound a maximum of 4 doses were tested using a dose escalation procedure starting from 30 mg/kg. If this initial dose is well-tolerated, the dosage is increased to 100 mg/kg. If the 30 mg/kg dose is not tolerated, the dose is reduced to 15 mg/kg. Following the dose escalation procedure, if the 100 mg/kg dose is well-tolerated, the dose is escalated to 315 mg/kg. If it is not tolerated, the dose is decreased to 60 mg/kg. The pattern continues with the next decision point: if 315 mg/kg is well-tolerated, the dose is increased to the maximum of 500 mg/kg. If 315 mg/kg is not tolerated, the dose is decreased to 200 mg/kg.
# The compounds would be considered not tolerated if three or more adverse effects (or any severe adverse effect) occurred at specific dose during the entire period of 60 mins. […] Mild—slight decrease in activity, responsive when provoked. Moderate—decrease in activity, less responsive when provoked.
SMILES,% Agonism on Orx1 at OR2 IC50 (Orx1) [%],% Cell viability at IC50 (cells) [%],% Agonism Orx2 at Relative IC50 (Orx2) [%],IC50 (Orx2) [µM],IC50 Dilution of Orx2 (fold dilution) (Orx2),further results
"O=c1c(O)c(-c2ccc(O)cc2)oc2cc(O)cc(O)c12 [Compound 12, 3,5,7-trihydroxy-2-(4-hydroxyphenyl)chromen-4-one]",64.4,80.39,65,53.3,7039.1,–
"COc1c(O)cc2oc(-c3ccc(O)cc3)c(OC)c(=O)c2c1O [Compound 14, 5,7-dihydroxy-2-(4-hydroxyphenyl)-3,6-dimethoxychromen-4-one]",62.98,94.58,50,89,3466.5,–
"C[C@@H]1O[C@@H](OC[C@H]2O[C@@H](Oc3c(-c4ccc(O)c(O)c4)oc4cc(O)cc(O)c4c3=O)[C@H](O)[C@@H](O)[C@@H]2O)[C@H](O)[C@H](O)[C@H]1O [Compound 15, 2-(3,4-dihydroxyphenyl)-5,7-dihydroxy-3-[(2S,3R,4S,5S,6R)-3,4,5-trihydroxy-6-[[(2R,3R,4R,5R,6S)-3,4,5-trihydroxy-6-methyloxan-2-yl]oxymethyl]oxan-2-yl]oxychromen-4-one]",67.71,103.46,65,79.1,2283.9,–
"COc1ccc(C(=O)CCc2ccc(O)cc2)c(O)c1 [Compound 16, 1-(2-hydroxy-4-methoxyphenyl)-3-(4-hydroxyphenyl)propan-1-one]",77.95,85.11,75,381,5786.9,–
"O=C(CCc1ccc(O)cc1)c1ccc(O)cc1OC1OC(CO)C(O)C(O)C1O (centres unmarked) [Compound 17, 3-(4-hydroxyphenyl)-1-[4-hydroxy-2-[3,4,5-trihydroxy-6-(hydroxymethyl)oxan-2-yl]oxyphenyl]propan-1-one]",100.52,89.87,80,188,5786.9,–
"O=C(CCc1ccc(O)cc1)c1ccc(OC2OC(CO)C(O)C(O)C2O)cc1O (centres unmarked) [Compound 19, 3-(4-hydroxyphenyl)-1-[2-hydroxy-4-[3,4,5-trihydroxy-6-(hydroxymethyl)oxan-2-yl]oxyphenyl]propan-1-one]",68.74,86.12,80,319,5786.9,–
"O=C(O)[C@H]1O[C@@H](Oc2c(-c3ccc(O)cc3)oc3cc(O)cc(O)c3c2=O)[C@H](O)[C@@H](O)[C@@H]1O [Compound 20, (2S,3S,4S,5R,6S)-6-[5,7-dihydroxy-2-(4-hydroxyphenyl)-4-oxochromen-3-yl]oxy-3,4,5-trihydroxyoxane-2-carboxylic acid]",–,83.58,45,146,–,–
"C[C@@H]1O[C@@H](O[C@H]2[C@H](Oc3c(-c4ccc(O)cc4)oc4cc(O)cc(O)c4c3=O)O[C@H](CO)[C@@H](O)[C@@H]2O)[C@H](O)[C@H](O)[C@H]1O [Compound 23, 3-[(2S,3R,4S,5S,6R)-4,5-dihydroxy-6-(hydroxymethyl)-3-[(2S,3R,4R,5R,6S)-3,4,5-trihydroxy-6-methyloxan-2-yl]oxyoxan-2-yl]oxy-5,7-dihydroxy-2-(4-hydroxyphenyl)chromen-4-one]",104.1268,107.68,50,174,–,–
"O=c1c(O)c(-c2ccc(O)c(O)c2)oc2cc(O)cc(O)c12 [Compound 29, 2-(3,4-dihydroxyphenyl)-3,5,7-trihydroxychromen-4-one]",–,–,–,–,–,"15 min effects (adverse effects) (male Sprague-Dawley rat; 30 mg/kg p.o.): No adverse effects; 30 min effects (adverse effects) (male Sprague-Dawley rat; 30 mg/kg p.o.): No adverse effects; 60 min effects (adverse effects) (male Sprague-Dawley rat; 30 mg/kg p.o.): No adverse effects; 15 min effects (adverse effects) (male Sprague-Dawley rat; 100 mg/kg p.o.): Reduced activity; 30 min effects (adverse effects) (male Sprague-Dawley rat; 100 mg/kg p.o.): No adverse effects; 60 min effects (adverse effects) (male Sprague-Dawley rat; 100 mg/kg p.o.): No adverse effects; 15 min effects (adverse effects) (male Sprague-Dawley rat; 315 mg/kg p.o.): Reduced activity; 30 min effects (adverse effects) (male Sprague-Dawley rat; 315 mg/kg p.o.): Reduced activity; also recorded: Pica (2/3); 60 min effects (adverse effects) (male Sprague-Dawley rat; 315 mg/kg p.o.): Reduced activity (3/3); 15 min effects (adverse effects) (male Sprague-Dawley rat; 500 mg/kg p.o.): Pica (1/3); 30 min effects (adverse effects) (male Sprague-Dawley rat; 500 mg/kg p.o.): Pica (2/3); 60 min effects (adverse effects) (male Sprague-Dawley rat; 500 mg/kg p.o.): No adverse effects; tolerability (male Sprague-Dawley rat; all four doses (30, 100, 315 and 500 mg/kg) p.o., 60 min observation): well-tolerated"
